Reference: patent US5622839A (ZymoGenetics, Inc., priority 1995, dated 1997)

Key:
[1] = target: T1, human calcitonin receptor (Homo sapiens, UniProt P30988); experiment: Inositol triphosphate assay in BHK 570 cells expressing pHollex; type: cell-based
T1 construct: Hollex encoded a protein of 474 amino acids; expressed in transfected cells; host or cells: BHK 570 / BHK/KZ10-20-48 (baby hamster kidney) stably transfected with pHollex
T1 sequence (P30988 25-474): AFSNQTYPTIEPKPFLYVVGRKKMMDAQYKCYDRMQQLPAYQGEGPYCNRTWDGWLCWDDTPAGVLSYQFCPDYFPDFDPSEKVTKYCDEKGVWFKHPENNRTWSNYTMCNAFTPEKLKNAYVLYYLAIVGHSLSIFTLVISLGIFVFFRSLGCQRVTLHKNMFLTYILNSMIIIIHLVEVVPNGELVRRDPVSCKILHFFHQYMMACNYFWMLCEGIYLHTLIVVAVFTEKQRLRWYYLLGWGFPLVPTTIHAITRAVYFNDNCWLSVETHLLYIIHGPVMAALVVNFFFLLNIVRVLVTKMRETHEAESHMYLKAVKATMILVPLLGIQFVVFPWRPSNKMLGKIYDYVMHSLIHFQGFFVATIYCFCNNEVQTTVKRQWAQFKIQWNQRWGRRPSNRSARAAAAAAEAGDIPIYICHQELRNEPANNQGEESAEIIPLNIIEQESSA
Protocol: BHK 570 cells expressing the calcitonin receptor from pHollex or mock-transfected BHK 570 cells were plated into 24-well tissue culture dishes at about 200,000 cells per well. After 24 hours, the cells in each well were labeled by incubation in 0.5 ml of Dulbecco's Modified Eagles Medium (DMEM, JRH Biosciences, Lenexa, Kans.) containing 10% fetal calf serum and 4.0 μCi/ml of myo-(2-^3 H) inositol (specific activity=20 Ci/mmol; Amersham). At the end of a 24 hour incubation, the cells were washed with 1 ml prewarmed DMEM that had been buffered with 20 mM Hepes, pH 7.0 (Sigma Chemical Co.) containing 10 mM LiCl. The wash medium was removed by aspiration and replaced with 900 μl of fresh buffered medium. The cells were incubated for five to fifteen minutes at 37° C. After incubation, appropriate concentration of each agonist or antagonist was added to triplicate wells, and the cells were incubated for 30 minutes at 37° C.
The reaction was terminated by placing the cells on ice. Following aspiration of the media, the cells were then lysed by the addition of 1 ml of cold DMEM and 1 ml of ice-cold 10% perchloric acid. After ten minutes the cell lysates were transferred to tubes containing 500 μl of 10 mM EDTA, pH 7.0. […] Ten milliliters of OPTIFLUOR (Packard Instrument Co., Menden, Conn.) were added to each sample, and the samples were counted. […]

[2] = target: T1, human calcitonin receptor; experiment: Calcitonin competition binding assay with cloned human calcitonin receptor (Hollex1, Hollex2); conditions: for Results (bound 125I calcitonin): 125I calcitonin […] 10^-2 nM
Protocol: (§1) Clones Hollex1 and Hollex2 were tested for receptor-mediated ability to bind calcitonin using a competition assay. T47D cells were used as a positive control and BHK cells transfected with Zem1698 were used as a negative control.
(§2) The cells were rinsed in binding medium (500 ml RPMI 1640 (Sigma, St. Louis, Mo.), 1 mg/ml bacitracin (Sigma), and 1 mg/ml BSA (Boehringer Mannheim)) to remove the serum. […] The cells were incubated for 1.5 hours at room temperature, and then rinsed 3 times with PBS to remove unincorporated radioactivity. Five hundred microliters of 0.25N NaOH was added to each well to solubilize the cells. The samples were collected from each well and CPMs were counted on a gamma counter.

T47D cells = target: T2, T47D cells (Homo sapiens, UniProt P30988); experiment: Calcitonin competition binding assay with T47D cells (positive control); conditions: T47D (pos. control)
T2 construct: T47D cells were used as a positive control; endogenous in cells; host or cells: T47D human breast carcinoma cells
T2 sequence (P30988 25-474): T1 sequence (P30988 25-474)
Protocol: as §1, §2

[3] = target: T1, human calcitonin receptor; experiment: [Ca2+]i response of BHK cells expressing cloned calcitonin receptor to calcitonin and extracellular calcium (fura-2); type: cell-based; conditions: about 700,000 calcitonin receptors/cell
Protocol: BHK cells expressing the cloned calcitonin receptor were assayed to determine their response to extracellular calcium. Cells were washed three times with a buffer (140 mM NaCl, 5 mM KCl, 0.5 mM MgCl2, 0.5 mM CaCl2 (concentration varied in some experiments), 10 mM glucose, 10 mM HEPES, pH 7.4) made using high purity salts (Aldrich, Milwaukee, Wis.) and sterile water (Baxter, McGaw Park, Ill.). Cells were loaded with fura-2 AM (Molecular Probes Inc.) (10 μg/ml) for 30 minutes essentially as described above, then washed an additional three times. Slides were mounted at room temperature on an inverted microscope (EPIPHOT, Nikon), and a field of cells (typically 20-30 cells) was located using a 40× Nikon fluor objective. The ratio of fura-2 emission at excitation wavelengths of 340 and 380 nm was recorded every 5 seconds. Individual cells were analyzed on a computer workstation (Sun Microsystems) using a software system designed for ratio imaging (Inovision). The concentration of calcium chloride in buffers was determined by comparison to calcium standards on a calcium analyzer (Nova Biomedical Corp. Waltham, Mass.). All experiments were reproduced three to eight times. Fura-2 ratio 340 nm to 380 nm values (R) were converted to [Ca^2+ ]i concentrations after calibration of the instrument using the formula: calcium (nm)=2240[R-0.3)/(20-R)]. Basal [Ca^2+ ]i concentrations were typically 80-150 nm. The peak fura-2 ratios 340/380 of individual cells exposed to 20 nm salmon calcitonin followed by 25 mM calcium chloride were averaged for some experiments and converted to [Ca^2+ ]i concentrations. Standard error was calculated at a 99% level using a Z score of 2.58 (n>30).

[4] = target: T1, human calcitonin receptor; experiment: cAMP response by radioimmunoassay (scintillation proximity assay) in Hollex1 and Hollex2; type: cell-based; conditions: 10 min; for EC50: read-out: ED50 (cAMP)
Protocol: The cAMP response of the transfectant clones Hollex1 and Hollex2 to calcitonin and forskolin was also assayed by radioimmunoassay using the cAMP [^125 I] scintillation proximity assay system (Amersham) using the manufacturer's directions. Briefly, either 1×10^5 cells per well or 3×10^5 cells per well were plated into the wells of a 24-well culture dish and grown for 2 days (1×10^5 cells per well) or overnight (3×10^5 cells per well) in selection medium. Calcitonin and forskolin were prepared in DMEM, 10% fetal calf serum, 10 μM IBMX at 0.0001-1000 nM and 25 μM, respectively.
The growth medium was replaced with 200 μl/well of agonist (either calcitonin or forskolin). The cells were incubated with the agonists for 10 minutes at 37° C. in 5% CO2. Following incubation, 800 μl of boiling water was added to each well. After 15 minutes the supernatants were collected and diluted 1:5 or 1:40 in acetate buffer (cAMP [^125 I] Scintillation Proximity Assay System (Amersham)). Samples were acetylated using triethylamine and acetic anhydride according to the protocol provided by the manufacturer.
A 100 μl aliquot of each acetylated sample was combined with 75 μl of ^125 I-cAMP, 75 μl anti-succinyl cAMP antisera and 75 μl of donkey anti-rabbit IgG coupled SPA beads (all assay solutions provided in the cAMP [^125 I] Scintillation Proximity Assay System (Amersham)) in a well of an Dynatech MICROLITE 2 plate. The trays were sealed and incubated overnight with continuous shaking on a rotary platform shaker at 200 rpm. The samples were counted in a Packard Top Count Microplate Scintillation Counter (Packard Instrument Co., Meriden, Conn.). A standard curve of 2-128 fmol acetylated cAMP was also run. Total ^125 I-cAMP bound and nonspecific binding were also determined.

bone resorption = conditions: compared with human forms of calcitonin; background; cited from earlier work

salmon calcitonin
EC50 ([1]; Hollex1, 30 min at 37° C., read-out: ED50 (inositol phosphate)): 9.5 nM
inositol phosphate response ([1]; Hollex2): no response
baseline control ([2]; 200 nM unlabeled salmon calcitonin): 27 cpm
Kd ([2]; Hollex1): 0.5 ± 0.2 nM
Kd ([2]; Hollex2): 0.3 ± 0.01 nM
Results (bound 125I calcitonin) ([2]; unlabeled salmon calcitonin 0.003 nM): 10430 cpm
Results (bound 125I calcitonin) ([2]; unlabeled salmon calcitonin 0.01 nM): 10278 cpm
Results (bound 125I calcitonin) ([2]; unlabeled salmon calcitonin 0.03 nM): 10262 cpm
Results (bound 125I calcitonin) ([2]; unlabeled salmon calcitonin 0.1 nM): 9711 cpm
Results (bound 125I calcitonin) ([2]; unlabeled salmon calcitonin 0.3 nM): 8421 cpm
Results (bound 125I calcitonin) ([2]; unlabeled salmon calcitonin 1 nM): 4132 cpm
Results (bound 125I calcitonin) ([2]; unlabeled salmon calcitonin 3 nM): 1639 cpm
Results (bound 125I calcitonin) ([2]; unlabeled salmon calcitonin 10 nM): 558 cpm
Results (bound 125I calcitonin) ([2]; unlabeled salmon calcitonin 30 nM): 458 cpm
Results (bound 125I calcitonin) ([2]; unlabeled salmon calcitonin 50 nM): 147 cpm
Kd (T47D cells): 0.6 ± 0.5 nM
concentration giving maximal transient [Ca2+]i increases [3]: 10-20 nm
EC50 ([4]; Hollex1): 0.07 nM
induction of cAMP ([4]; Hollex1, saturating concentrations (10-100 nM)): 12 fold
EC50 ([4]; Hollex2): 0.04 nM
induction of cAMP levels ([4]; Hollex2, saturating concentrations (10-100 nM)): 5 fold
effectiveness in arresting bone resorption (bone resorption): considerably more effective
